Where “and” joins values, the source holds several entries; their conditions need not be identical. Identical values can stand only once.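 48-hour exposure; five concentrations; linearly interpolated endpoints. At the GI50, growth is halved. TGI: total growth inhibition.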
Legend:
Assay in all cases: NCI anticancer screen, dose series, 48 h
[1] = test system: COLO 205 colon
[2] = test system: HL-60(TB) leukemia
[3] = test system: IGROV1 ovarian
[4] = test system: MALME-3M melanoma
[5] = test system: MDA-MB-231 breast
[6] = test system: NCI-H23 lung
[7] = test system: OVCAR-4 ovarian
[8] = test system: SN12C renal
[9] = test system: UO-31 renal
[10] = test system: OVCAR-3 ovarian

| Structure (SMILES) | TGI [1] | TGI [2] | TGI [3] | TGI [4] | TGI [5] | TGI [6] [µM] | TGI [7] | TGI [8] | TGI [9] | GI50 [1] | GI50 [2] | GI50 [3] | GI50 [5] | GI50 [6] | GI50 [10] | TGI [10] | GI50 [7] | GI50 [8] | GI50 [9] | GI50 [4] |
| --- | --- | --- | --- | --- | --- | --- | --- | --- | --- | --- | --- | --- | --- | --- | --- | --- | --- | --- | --- | --- |
| NC(=O)CC1OC(=O)Cc2cc3c(c(O)c21)C(=O)c1c(O)cccc1C3=O (centres undefined) | > 100 µM | > 100 µM | > 100 µM | > 100 µM | > 100 µM | > 100 | > 100 µM | > 100 µM | > 100 µM | – | – | – | – | – | – | – | – | – | – | – |
| CCOC(=O)C(=Cc1ccc(C#N)cc1)C(=O)OCC | 3.83 µM | 5.48 µM | 7.96 µM | – | 6.95 µM | 5.53 | 12.6 µM | 4.71 µM | 3.49 µM | 1.87 µM | 1.88 µM | 2.61 µM | 2.69 µM | 2.15 µM | 2.01 µM | 4.39 µM | 3.44 µM | 1.81 µM | 1.65 µM | – |
| CC(C)(C)OC(=O)C1C(=O)NC(=O)CC1CC(OCc1ccccc1)C(OCc1ccccc1)C(COCc1ccccc1)OCc1ccccc1 (centres undefined) | – | 46.5 µM and 11.1 µM | > 100 µM | > 100 µM and 45.4 µM | > 100 µM | > 100 | > 100 µM | > 100 µM | 24.8 µM and 16.2 µM | – | 16.6 µM and 2.81 µM | > 100 µM and 22.3 µM | 42.8 µM and 6.81 µM | 80.1 µM and 30 µM | – | > 100 µM | – | 95 µM and 36.4 µM | 11.1 µM and 4.48 µM | 25.4 µM and 11.4 µM |
| Cc1cc(OCc2nnc3n2S(=O)(=O)c2ccccc2N3C)ccc1Cl | > 100 µM | 55.1 µM | > 100 µM | – | 41.7 µM | > 100 | 24.2 µM | > 100 µM | > 100 µM | – | – | – | – | – | – | 57.2 µM | – | – | – | – |
| COC(=O)/C=C1/SC(=Nc2cccc(Cl)c2)N(CCc2c[nH]c3ccc(O)cc23)C1=O | 4.04 µM | 6.09 µM | 4.35 µM | – | 3.59 µM | 4.34 | 4.44 µM | 3.67 µM | 2.88 µM | 2.05 µM | 1.79 µM | 2 µM | 1.74 µM | 1.86 µM | 1.54 µM | 3.23 µM | 1.4 µM | 1.79 µM | 1.43 µM | – |
| CN1C(=O)CCC(N2C(=O)c3cccc(NCCOCCOCCNC(=O)c4cc5c(o4)C(=O)c4ccccc4C5=O)c3C2=O)C1=O (centres undefined) | 4.04 µM | 5.88 µM | 4.31 µM | 0.316 µM | 8.77 µM | – | 2.8 µM | 2.79 µM | 3.31 µM | 2.06 µM | 2.03 µM | 1.8 µM | 2.64 µM | – | 1.53 µM | 4 µM | 1.43 µM | 1.41 µM | 1.59 µM | 0.151 µM |
| COc1ccc(NC(=O)Oc2ccc3c(C)cc(=O)oc3c2)c(OC)c1 (tested in a mixture with another compound) | > 100 µM | – | > 100 µM | > 100 µM | > 100 µM | > 100 | > 100 µM | > 100 µM | > 100 µM | – | – | – | – | – | – | > 100 µM | – | – | – | – |
| CC1SC(c2ccccc2Cl)N(NC(=O)C(O)c2ccccc2)C1=O (centres undefined) | – | > 100 µM | > 100 µM | – | > 100 µM | – | > 100 µM | > 100 µM | > 100 µM | – | 82.4 µM | 73.1 µM | 33.8 µM | – | 35.4 µM | > 100 µM | > 100 µM | > 100 µM | 74.9 µM | – |
| C[C@@H]1C[C@H](N)C[C@H](c2ccncc2NC(=O)c2ccc(F)c(-c3c(F)cccc3F)n2)C1 | 22.1 µM and > 10 µM | 12.1 µM and > 10 µM | 21 µM and > 10 µM | 24.3 µM and > 10 µM | 26.8 µM and > 10 µM | – | 22 µM and > 10 µM | 25.7 µM and > 10 µM | 18.6 µM and > 10 µM | 4.38 µM and 3.84 µM | 2.73 µM and 1.48 µM | 5.05 µM and 8.68 µM | 12.8 µM and 4.01 µM | – | 14.3 µM and > 10 µM | 28.2 µM and > 10 µM | 9.39 µM and > 10 µM | 12.3 µM and > 10 µM | 3.65 µM and 1.28 µM | 10.5 µM and > 10 µM |
| O=C(c1c(F)c(F)c(F)c(F)c1F)c1c(F)c(F)c(F)c(F)c1F | 3.28 µM | > 100 µM | 2.64 µM | 3.23 µM | 3.46 µM | 7.87 | 3.14 µM | – | 2.64 µM | – | – | – | – | – | – | 2.43 µM | – | – | – | – |
| C(=N\Nc1ncc(-c2cc3cc4c(cc3o2)OCO4)s1)/c1ccco1 | – | 7.59 µM | 8.09 µM | 6.18 µM | 3.83 µM | 4.22 | 12.2 µM | 12.7 µM | 3.68 µM | – | 2.7 µM | 2.6 µM | 1.64 µM | 1.51 µM | – | – | 1.27 µM | 2.97 µM | 0.59 µM | 1.92 µM |
| C=C(C)[C@@H]1CC[C@]2(CO)CC[C@]3(C)[C@H](CC[C@@H]4[C@@]5(C)CCCNC(C)(C)[C@@H]5CC[C@]43C)[C@@H]12 | 3.24 µM | – | 3.26 µM | 3.05 µM | 3.21 µM | 3.39 | – | 3.03 µM | 2.99 µM | 1.54 µM | – | 1.66 µM | 1.77 µM | 1.71 µM | 1.66 µM | 3.13 µM | – | 1.62 µM | 1.56 µM | 1.5 µM |
| CCOC(=O)c1ccc(-n2cnc(-c3ccc([N+](=O)[O-])cc3)c2)cc1 | > 100 µM | > 100 µM | > 100 µM | > 100 µM | > 100 µM | > 100 | – | > 100 µM | > 100 µM | – | – | – | – | – | – | > 100 µM | – | – | – | – |
| Oc1ccccc1-c1nn(CNc2ccc(Cl)cc2)c(=S)o1 | > 100 µM | – | > 100 µM | – | > 100 µM | 64.5 | – | > 100 µM | > 100 µM | 7.01 µM | – | > 100 µM | > 100 µM | 0.511 µM | 23.5 µM | > 100 µM | – | 75.8 µM | > 100 µM | – |
| COc1ccc(-c2ncnc3c2ncn3CC#CCCl)cc1 | 13.7 µM | 17.6 µM | – | 16 µM | 8.28 µM | 21.4 | 12.5 µM | 6.32 µM | 15.3 µM | 3.51 µM | 3.06 µM | – | 2.32 µM | 7.83 µM | 1.93 µM | 5.75 µM | 2.66 µM | 2.26 µM | 2.43 µM | 2.58 µM |
| CCC[CH2][Sn](=[O])[CH2]CCC | > 50 µM | > 50 µM | > 50 µM | > 50 µM | – | > 50 | > 50 µM | > 50 µM | > 50 µM | > 50 µM | > 36.2 µM | > 50 µM | – | > 50 µM | > 50 µM | > 50 µM | > 50 µM | > 50 µM | > 50 µM | > 50 µM |

From PubChem BioAssay (NCI)
